Experimental data from US4258034A, “Lactobionic acid poly(H-sulfate) and salts thereof useful as complement inhibitors” (American Cyanamid Company, priority 1979, dated 1981).
Counter-ions that a name gives are not always drawn.

Legend:
Settings in all cases: activity in wells, twofold serial dilution assay; higher well number indicates higher activity
activated human C1 = test: Test Code 026 (C1 inhibitor); assay type: biochemical
Text: (§1) An active inhibitor protects C2 from C1 and C4; (ii) Test Code 035 (C3-C9 inhibitor)--This test determines the ability of the late components of human complement (C3-C9) to lyse EAC 142 in the presence of appropriate dilutions of the test compound. An active inhibitor protects EAC 142 from lysis by human C3-C9; (iii) Test Code 036 (C-Shunt inhibitor)--In this test human erythrocytes rendered fragile are lysed in autologous serum via the shunt pathway activated by cobra venom factor in the presence of appropriate dilutions of the test compound. Inhibition of the shunt pathway results in failure of lysis; (iv) Forssman Vasculitis Test--Here, the well known complement dependent lesion, Forssman vasculitis, is produced in guinea pigs by intradermal injection of rabbit anti-Forssman antiserum. […]

shunt pathway = test: Test Code 036 (C-Shunt inhibitor), lysis of fragile human erythrocytes in autologous serum, cobra venom factor activated; assay type: cell-based
Text: as §1

[1] = test system: late components of human complement (C3-C9); test: Test Code 035 (C3-C9 inhibitor), lysis of EAC 142; assay type: biochemical
Text: as §1

Structure (SMILES)	C1 026 Wells (activated human C1)	Shunt Inhibition 036 Wells (shunt pathway)	C-Late 035 Wells [1]
O=C(O)[C@H](OS(=O)(=O)O)[C@@H](OS(=O)(=O)O)[C@H](O[C@@H]1O[C@H](COS(=O)(=O)O)[C@H](OS(=O)(=O)O)[C@H](OS(=O)(=O)O)[C@H]1OS(=O)(=O)O)[C@@H](COS(=O)(=O)O)OS(=O)(=O)O [Lactobionic acid, octakis (H-sulfate), nonatrimethylamine sa] [Lactobionic acid, octakis (H-sulfate), nonatrimethylamine salt]	8 Wells	4 Wells	2 Wells
O=C(O)[C@H](OS(=O)(=O)O)[C@@H](OS(=O)(=O)O)[C@H](O[C@@H]1O[C@H](COS(=O)(=O)O)[C@H](OS(=O)(=O)O)[C@H](OS(=O)(=O)O)[C@H]1OS(=O)(=O)O)[C@@H](COS(=O)(=O)O)OS(=O)(=O)O [Lactobionic acid, octakis (H-sulfate) nonasodium salt] [Lactobionic acid, octakis (H-sulfate), nonasodium salt]	8 Wells	5 Wells	2 Wells
